Experimental data taken from PMC6396024, “Artemin and an Artemin-Derived Peptide, Artefin, Induce Neuronal Survival, and Differentiation Through Ret and NCAM” (Frontiers in Molecular Neuroscience, 2019).
Bridge positions count the residues as written; N and C are the ends. Ends that are not written are not given here. I, II: the chains in the order shown.

B1: recombinant human Artemin (ARTN) (ligand, UniProt Q5T4W7 108-220, looked up)
chain: AGGPGSRARAAGARGCRLRSQLVPVRALGLGHRSDELVRFRFCSGSCRRARSPHDLSLASLLGAGALRPPPGSRPVSQPCCRPTRYEAVSFMDVNSTWRTVDRLSATACGCLG
notes: Artemin (ARTN), human, UniProt D3DPX9; source: bought: R&D Systems

Experiments:
[1] = tested on: RET; cerebellar granule neurons (CGNs); experiment: Neurite outgrowth in CGNs transfected with dominant negative RET (dnRET); assay type: cell-based, Wistar rat; details: 24 h, P2-d 8 μg/ml, ARTN 0.21 nM, artefin 1.4 μM; for neurite outgrowth in mock-transfected neurons: empty vector, versus control
Procedure: (§1) Cerebellar granule neurons (CGNs) were prepared from 7-day-old Wistar rat pups (Charles River Laboratories, Sulzfeld, Germany) as previously described ([Schousboe et al., 1989]). Briefly, pups were decapitated, and the cerebellum was removed and cleared from blood vessels and meninges in ice-cold modified Krebs-Ringer buffer. The cerebellum was dissociated by chopping and trypsinization. Cells were washed in Krebs-Ringer buffer containing DNAse I (Sigma, St. Louis, MO, United States) and soybean trypsin inhibitor (Sigma) to stop trypsinization, and the remaining tissue pieces were pelleted by centrifugation. Cells were then washed in Krebs-Ringer buffer containing Ca^2+ and Mg^2+ and re-suspended in appropriate Neurobasal^TM medium (Invitrogen, Taastrup, Denmark) with supplements depending on the experiment.
(§2) To evaluate the involvement of NCAM and RET in neurite outgrowth induced by either ARTN or artefin, CGNs (3 × 10^6 per transfection) were transfected with 3 μg DNA using a Nucleofector^TM 2b device and a Rat Neuron Nucleofector Kit (Amaxa, Inc., Gaithersburg, MD, United States). A kinase-deleted dominant negative RET insert was obtained by direct PCR using a commercially available clone (IRAKp961P02132Q; RZPD, Berlin, Germany) encoding full-length mouse RET coding sequence 586–3807 nt. as template. The upper primer […] contained a NheI restriction site and Kozak sequence, and the lower primer […] encoded Streptag II and NotI restriction sites. The dominant negative RET insert and the pcDNA5/FRT expression vector containing the Flp-In system were cut with NheI and NotI restriction enzymes, purified, ligated using the Rapid DNA Ligation Kit (Roche, Basel, Switzerland), and transfected into One Shot TOP10 E. coli (Invitrogen, Taastrup, Denmark). E. coli colonies containing the dominant negative RET insert were identified by PCR, and one insert-positive colony was used for plasmid purification. The identity of the purified plasmid was verified by restriction cutting and sequencing of the insert. For NCAM knock down, we used a pENTR vector containing the shRNA expression cassette for NCAM knock down ([Hansen et al., 2007]). An empty vector was used as a control. To identify transfected neurons, all transfections were performed as co-transfections with 0.5 μg pEGFP-N1, an expression vector encoding the enhanced variant of green fluorescent protein (GFP; Clontech, Palo Alto, CA, United States). Transfected CGNs were seeded in Neurobasal^TM-A medium supplemented with 2% (v/v) B27, 5% (v/v) FCS, and 2 mM Glutamax at a density of 1 × 10^5 cells/cm^2.
(§3) To estimate neurite outgrowth, neurons were fixated 24 h after stimulation and stained with rabbit anti-growth-associated-protein-43 (GAP-43) antibody (Chemicon International, Inc., Temecula, CA, United States) or anti-GFP antibody (for transfection experiment) overnight at 4°C followed by incubation with secondary Alexa-conjugated goat anti-rabbit antibodies (Invitrogen, Taastrup, Denmark). In case of experiments with plasmid transfection, the transfection efficiency was ca. 20% of total cells and the neurite outgrowth was evaluated only in GFP-positive, i.e., transfected, cells. For representative pictures, cells were additionally co-stained with Hoechst 33258.
(§4) Computer-assisted fluorescent microscopy was performed using a Nikon Diaphot 300 inverted microscope (Nikon) equipped with a Nikon Plan 20× objective and coupled to a video camera (Grundig Electronics, Germany). For each condition in each experiment, including the experiment with transfections, images of approximately 200 cells were recorded in systematic series of fields of view, and neurite outgrowth was quantified using a stereological approach as previously described ([Rønn et al., 2000]).
(§5) FIGURE 7 Neuritogenic effect of ARTN and artefin in (A) dominant negative RET or (B) knock down NCAM-expressing CGNs. […]

[2] = tested on: NCAM; cerebellar granule neurons (CGNs); experiment: Neurite outgrowth in CGNs with NCAM knock down (NCAM shRNA); assay type: cell-based, Wistar rat; details: 24 h, P2-d 8 μg/ml, ARTN 0.21 nM, artefin 1.4 μM; for neurite outgrowth in NCAM knock down neurons: NCAM shRNA; for neurite outgrowth in mock-transfected neurons: empty vector, versus control
Procedure: as §1, §2, §3, §4, §5

Molecule | neurite outgrowth in dnRET-transfected neurons [1] | neurite outgrowth in mock-transfected neurons [1] | neurite outgrowth in NCAM knock down neurons [2] | neurite outgrowth in mock-transfected neurons [2]
I: RSPHDLSLASLLGAGKK-NH2 / II: RSPHDLSLASLLGAGK / III: RSPHDLSLASLLGAG / IV: RSPHDLSLASLLGAG (amide I:16-IV:C, I:17-II:C, II:16-III:C; C-terminus assumed) [artefin] | abrogated in dnRET-transfected neurons (p < 0.01 versus artefin alone | significantly increased neurite outgrowth in mock-transfected neurons (p < 0.01 versus control) | abrogated in neurons where NCAM expression was knocked down (p < 0.001 | promoted the neurite outgrowth in mock-transfected neurons (p < 0.01)
B1 | abolished in neurons expressing dnRET (p < 0.05 versus ARTN alone | significantly increased by ARTN in mock-transfected neurons (p < 0.05 versus control) | completely abolished the neurite outgrowth effect of ARTN | significantly higher level of neurite outgrowth compared to unstimulated controls (p < 0.05
